The target in this experiment is T1, TLR9 (Homo sapiens, UniProt Q9NR96).
T1 sequence (Q9NR96 26-1032): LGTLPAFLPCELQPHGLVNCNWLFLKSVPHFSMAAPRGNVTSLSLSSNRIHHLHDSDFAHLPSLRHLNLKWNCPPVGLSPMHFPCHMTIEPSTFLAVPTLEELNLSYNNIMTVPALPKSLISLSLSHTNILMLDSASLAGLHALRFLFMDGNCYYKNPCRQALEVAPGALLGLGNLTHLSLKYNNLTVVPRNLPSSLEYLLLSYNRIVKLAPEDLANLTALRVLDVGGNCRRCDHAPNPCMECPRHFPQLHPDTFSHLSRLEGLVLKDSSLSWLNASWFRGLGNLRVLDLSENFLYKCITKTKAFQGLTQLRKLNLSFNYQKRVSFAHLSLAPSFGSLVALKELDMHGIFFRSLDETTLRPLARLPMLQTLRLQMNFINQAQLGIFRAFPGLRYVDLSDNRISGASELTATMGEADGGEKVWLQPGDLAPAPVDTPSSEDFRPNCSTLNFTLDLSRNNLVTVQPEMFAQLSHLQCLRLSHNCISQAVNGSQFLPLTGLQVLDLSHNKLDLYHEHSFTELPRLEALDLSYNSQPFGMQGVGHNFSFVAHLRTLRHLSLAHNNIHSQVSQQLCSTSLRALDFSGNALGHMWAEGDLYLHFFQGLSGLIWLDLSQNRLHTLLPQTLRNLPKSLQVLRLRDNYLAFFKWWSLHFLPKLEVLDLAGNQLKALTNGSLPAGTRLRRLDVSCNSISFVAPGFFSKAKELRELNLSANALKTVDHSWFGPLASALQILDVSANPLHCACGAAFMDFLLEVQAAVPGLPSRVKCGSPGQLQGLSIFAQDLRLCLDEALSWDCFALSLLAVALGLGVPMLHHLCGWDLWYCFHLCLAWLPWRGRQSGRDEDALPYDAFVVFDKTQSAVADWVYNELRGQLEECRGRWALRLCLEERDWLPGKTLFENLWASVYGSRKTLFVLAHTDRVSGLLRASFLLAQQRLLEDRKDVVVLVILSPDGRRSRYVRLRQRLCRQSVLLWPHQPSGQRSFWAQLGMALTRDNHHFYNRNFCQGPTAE
Nature of the experiment: HEK293-Blue-hTLR-9 cells assay (SEAP reporter, ODN2006 stimulation). The experiment is classed as cell-based. Set-up: host or cells: HEK293 (HEK-Blue hTLR9). The conditions noted are these: HEK293-Blue-hTLR9 cells, ODN2006, 20 hrs; read-out: HEK/hTLR9 IC50. The method, then: The following tests were carried out in order to determine the activity of the compounds of formula (I) and (Ia) in HEK293-Blue-hTLR-7/8/9 cells assay.
A stable HEK293-Blue-hTLR-9 cell line was purchased from InvivoGen (Cat. #: hkb-htlr9, San Diego, California, USA). These cells were originally designed for studying the stimulation of human TLR9 by monitoring the activation of NF-κB. A SEAP (secreted embryonic alkaline phosphatase) reporter gene was placed under the control of the IFN-β minimal promoter fused to five NF-κB and AP-1-binding sites. The SEAP was induced by activating NF-κB and AP-1 via stimulating HEK-Blue hTLR9 cells with TLR9 ligands. Therefore the reporter expression was declined by TLR9 antagonist under the stimulation of a ligand, such as ODN2006 (Cat. #: tlrl-2006-1, Invivogen, San Diego, California, USA), for incubation of 20 hrs. The cell culture supernatant SEAP reporter activity was determined using QUANTI-Blue™ kit (Cat. #: rep-qb1, Invivogen, San Diego, California, USA) at a wavelength of 640 nm, a detection medium that turns purple or blue in the presence of alkaline phosphatase.
HEK293-Blue-hTLR9 cells were incubated at a density of 250,000-450,000 cells/mL in a volume of 170 μL in a 96-well plate in Dulbecco's Modified Eagle's medium (DMEM) containing 4.5 g/L glucose, 50 U/mL penicillin, […], […], 2 mM L-glutamine, 10% (v/v) heat-inactivated fetal bovine serum with addition of 20 μL test compound in a serial dilution in the presence of final DMSO at 1% and 10 μL of 20 uM ODN2006 in above DMEM, perform incubation under 37° C. in a CO2 incubator for 20 hrs. Then 20 μL of the supernatant from each well was incubated with 180 μL Quanti-blue substrate solution at 37° C. for 2 h and the absorbance was read at 620˜655 nm using a spectrophotometer.
The signaling pathway that TLR9 activation leads to downstream NF-κB activation has been widely accepted, and therefore similar reporter assay was modified for evaluating TLR9 antagonist.
Regarding `C[C@H]1CN(c2ccnc3c2cnn3C)Cc2ccc(N3CC4CNC[C@H]4C3=O)cc21` (relative stereo) [Example 17, cis-5-[(4R)-4-methyl-2-(1-methylpyrazolo[3,4-b]pyridin-4-yl)-3,4-dihydro-1H-isoquinolin-6-yl]-1,2,3,3a,6,6a-hexahydropyrrolo[3,4-c]pyrrol-4-one], the IC50 was found to be 217 nM.

Take `C[C@H]1CN(c2ccnc3c2cnn3C)Cc2ccc(N3C[C@@H]4CCNCC4C3=O)cc21` (relative stereo) [Example 55, cis-2-[(4R)-4-methyl-2-(1-methylpyrazolo[3,4-b]pyridin-4-yl)-3,4-dihydro-1H-isoquinolin-6-yl]-3a,4,5,6,7,7a-hexahydro-1H-pyrrolo[3,4-c]pyridin-3-one]: the IC50 was 137 nM.

Consider `C[C@H]1CN(c2ccnc3c2cnn3C)Cc2ccc(N3C[C@@]4(CCNC4)CC3=O)cc21` (single isomer, unassigned) [Example 53], for which the IC50 came to 210 nM.

As to `C[C@H]1CN(c2ccnc3c2cnn3C)Cc2ccc(N3C[C@]4(CCNC4)CC3=O)cc21` (single isomer, unassigned) [Example 54], the IC50 stood at 334 nM.

`C[C@H]1CN(c2ccnc3c2cnn3C)Cc2ccc(N3C[C@H]4CCNC[C@H]4C3=O)cc21` (single isomer, unassigned) [Example 56]: the IC50 stood at 254 nM.

Consider `C[C@H]1CN(c2ccnc3c2cnn3C)Cc2ccc(N3C[C@@H]4CCNC[C@@H]4C3=O)cc21` (single isomer, unassigned) [Example 57], for which the IC50 came out at 226 nM.

With `C[C@H]1CN(c2ccnc3c2cnn3C)Cc2ccc(N3CCNCC3)cc21` [Example 1, (4R)-4-methyl-2-(1-methylpyrazolo[3,4-b]pyridin-4-yl)-6-piperazin-1-yl-3,4-dihydro-1H-isoquinoline], the IC50 turned out to be 198 nM.

For the compound `Cc1cc(N2Cc3ccc(N4CCNCC4)cc3[C@@H](C)C2)c2cnn(C)c2n1` [Example 2, (4R)-2-(1,6-dimethylpyrazolo[3,4-b]pyridin-4-yl)-4-methyl-6-piperazin-1-yl-3,4-dihydro-1H-isoquinoline], the IC50 stood at 86 nM.

With `Cn1ncc2c(N3CCc4cc(N5CCNCC5)ccc4C3)ccnc21` [Example 3, 2-(1-methylpyrazolo[3,4-b]pyridin-4-yl)-6-piperazin-1-yl-3,4-dihydro-1H-isoquinoline], the IC50 was found to be 185 nM.

With `CC1CN(c2ccnc3c2cnn3C)Cc2ccc(N3CCC4(CCNCC4)CC3)cc21` (centres unmarked) [Example 4, 3-[4-methyl-2-(1-methylpyrazolo[3,4-b]pyridin-4-yl)-3,4-dihydro-1H-isoquinolin-6-yl]-3,9-diazaspiro[5.5]undecane], the IC50 is 275 nM.

For `Cc1cc(N2Cc3ccc(N4CCC5(CCNCC5)CC4)cc3C(C)C2)c2cnn(C)c2n1` (centres unmarked) [Example 5, 3-[2-(1,6-dimethylpyrazolo[3,4-b]pyridin-4-yl)-4-methyl-3,4-dihydro-1H-isoquinolin-6-yl]-3,9-diazaspiro[5.5]undecane], the IC50 was determined as 123 nM.

With `Cn1ncc2c(N3Cc4ccc(N5CCC6(CCNCC6)CC5)cc4C(C)(C)C3)ccnc21` [Example 6, 3-[4,4-dimethyl-2-(1-methylpyrazolo[3,4-b]pyridin-4-yl)-1,3-dihydroisoquinolin-6-yl]-3,9-diazaspiro[5.5]undecane], the IC50 came to 112 nM.

As to `C[C@H]1CN(c2ccnc3c2cnn3C)Cc2ccc(N3CCN(C(=O)C4CCNCC4)CC3)cc21` [Example 7, 4-piperidyl-[4-[(4R)-4-methyl-2-(1-methylpyrazolo[3,4-b]pyridin-4-yl)-3,4-dihydro-1H-isoquinolin-6-yl]piperazin-1-yl]methanone], the IC50 worked out at 104 nM.

Regarding `C[C@H]1CN(c2ccnc3c2cnn3C)Cc2ccc(N3CCN(C(=O)C4CCCN4)CC3)cc21` (stereo partly drawn) [Example 8, pyrrolidin-2-yl-[4-[(4R)-4-methyl-2-(1-methylpyrazolo[3,4-b]pyridin-4-yl)-3,4-dihydro-1H-isoquinolin-6-yl]piperazin-1-yl]methanone], the IC50 was 140 nM.

As to `C[C@H]1CN(c2ccnc3c2cnn3C)Cc2ccc(N3CCN(c4cc5c(cn4)CCNC5)CC3)cc21` [Example 9, 7-[4-[(4R)-4-methyl-2-(1-methylpyrazolo[3,4-b]pyridin-4-yl)-3,4-dihydro-1H-isoquinolin-6-yl]piperazin-1-yl]-1,2,3,4-tetrahydro-2,6-naphthyridine], the IC50 worked out at 117 nM.

Take `C[C@H]1CN(c2ccnc3c2cnn3C)Cc2ccc(N3CCC(N4CCNCC4)CC3)cc21` [Example 10, (4R)-4-methyl-2-(1-methylpyrazolo[3,4-b]pyridin-4-yl)-6-(4-piperazin-1-yl-1-piperidyl)-3,4-dihydro-1H-isoquinoline]: the IC50 was 58 nM.

Regarding `CO[C@@H]1CN(C2CCN(c3ccc4c(c3)[C@@H](C)CN(c3ccnc5c3cnn5C)C4)CC2)C[C@H]1N` [Example 11, (3R,4R)-4-methoxy-1-[1-[(4R)-4-methyl-2-(1-methylpyrazolo[3,4-b]pyridin-4-yl)-3,4-dihydro-1H-isoquinolin-6-yl]-4-piperidyl]pyrrolidin-3-amine], the IC50 stood at 63 nM.

Turning to `C[C@H]1CN(c2ccnc3c2cnn3C)Cc2ccc(N3CCN(C(=O)C4CNCCO4)CC3)cc21` (stereo partly drawn) [Example 12, morpholin-2-yl-[4-[(4R)-4-methyl-2-(1-methylpyrazolo[3,4-b]pyridin-4-yl)-3,4-dihydro-1H-isoquinolin-6-yl]piperazin-1-yl]methanone], the IC50 was determined as 298 nM.

For the compound `C[C@H]1CN(c2ccnc3c2cnn3C)Cc2ccc(N3CCC(O)(CN(C)C)CC3)cc21` [Example 13, 4-[(dimethylamino)methyl]-1-[(4R)-4-methyl-2-(1-methylpyrazolo[3,4-b]pyridin-4-yl)-3,4-dihydro-1H-isoquinolin-6-yl]piperidin-4-ol], the IC50 worked out at 399 nM.

Consider `Cc1cc(N2Cc3ccc(N4CCC(O)(CN(C)C)CC4)cc3[C@@H](C)C2)c2cnn(C)c2n1` [Example 14, 4-[(dimethylamino)methyl]-1-[(4R)-2-(1,6-dimethylpyrazolo[3,4-b]pyridin-4-yl)-4-methyl-3,4-dihydro-1H-isoquinolin-6-yl]piperidin-4-ol], for which the IC50 was 158 nM.

On to `CC1CN(c2ccc3c(c2)[C@@H](C)CN(c2ccnc4c2cnn4C)C3)CCN1` (stereo partly drawn) [Example 15, (4R)-4-methyl-6-(3-methylpiperazin-1-yl)-2-(1-methylpyrazolo[3,4-b]pyridin-4-yl)-3,4-dihydro-1H-isoquinoline], for which the IC50 amounted to 309 nM.

On to `C[C@H]1CN(c2ccnc3c2cnn3C)Cc2ccc(N3CC4(CCNCC4)CC3=O)cc21` [Example 16, 2-[(4R)-4-methyl-2-(1-methylpyrazolo[3,4-b]pyridin-4-yl)-3,4-dihydro-1H-isoquinolin-6-yl]-2,8-diazaspiro[4.5]decan-3-one], for which the IC50 amounted to 63 nM.

Consider `C[C@H]1CN(c2ccnc3c2cnn3C)Cc2ccc(OC[C@H]3CNCCN3)cc21` [Example 18, (4R)-4-methyl-2-(1-methylpyrazolo[3,4-b]pyridin-4-yl)-6-[[(2R)-piperazin-2-yl]methoxy]-3,4-dihydro-1H-isoquinoline], for which the IC50 was determined as 111 nM.

Values taken from US20240317735A1, “HYDROISOQUINOLINE OR HYDRONAPHTHYRIDINE COMPOUNDS FOR THE TREATMENT OF AUTOIMMUNE DISEASE” (Hoffmann-La Roche Inc., priority 2020, published 2024).
